Measurements: US20230235283A1, “CULTURE MEDIUM FOR ESOPHAGEAL SQUAMOUS CELL CARCINOMA EPITHELIAL CELLS, CULTURE METHOD, AND APPLICATION THEREOF” (PRECEDO PHARMACEUTICALS CO., LTD, priority 2020, published 2023)

How the values were obtained:
Type in all cases: cell-based, human
[1] = system: ESCC tumor cells (No. 0F0064); assay: Effects of different factors added to basic medium BM on proliferation of primary ESCC cells (cell count); conditions: factor added to BM at concentrations of Table 3; 12 days of culture; FIGS. 1A-1E
Description: (§1) Extracellular matrix gel (Matrigel®) (manufactured by BD Biosciences) was diluted at 1:100 in serum-free DMEM/F12 medium to prepare an extracellular matrix dilution, which was added to a 48-well culture plate with 500 μl/well to completely cover the bottom of the wells of the culture plate. The resultant was let stand for 1 hour in a 37° C. incubator. After 1 hour, the extracellular matrix dilution was removed to provide a Matrigel-coated plate.
Preparation of basic medium (abbreviated as BM): BM was prepared by adding 0.2 vol. % of Primocin (purchased from Invivogen, with a concentration of 50 mg/mL) to the commercial DMEM/F-12 medium to provide a final concentration of 100 μg/mL.
Next, different kinds and concentrations of additive factors (Table 3) were added to the basic medium (BM), so as to prepare culture mediums for ESCC epithelial cells containing different additive components.
The culture mediums with different components were added at a volume of 500 μl/well to 48-well plates which were coated with extracellular matrix gel (Matrigel). ESCC tumor cells (No. 0F0064) isolated from ESCC tissue according to the same method described in Example 1 were inoculated in a Matrigel-coated 48-well culture plate at a cell density of 2×10^4 cells/cm^2. After surface disinfection, the plate was placed in a 37° C., 5% CO2 incubator (purchased from Thermo Fisher), such that equal numbers of freshly isolated ESCC tumor cells (No. 0F0064) were cultured under different medium formulations. The culture mediums were renewed every 4 days after the start of the culture. After 12 days of culture, cell counts were performed. As an experiment control, the basis medium (BM) without any additive was used. The ordinate in each figure represents the ratio of the number of cells obtained after culture in different mediums to the number of cells obtained after culture in basic medium BM. As shown in the figures, the addition of different concentrations of different factors as shown in Table 3 to BM has different effects on cell proliferation.

[2] = system: primary ESCC tumor cells (No. 0F0061); assay: Effects of removing single factor or combination of factors from FEM on continuous expansion of primary ESCC cells; conditions: continuous culture, third passage; FIG. 12 and FIG. 13
Description: The culture medium for primary ESCC epithelial cell FEM was prepared in the same method of Example 2. As a control, a basic medium (hereinafter also referred to as “BM”) was prepared using the same method of Example 2. In addition, six other different culture mediums were prepared according to Table 9.
ESCC tissue-originated primary ESCC tumor cells (No. 0F0061) were obtained by using the same method as in Example 1. Then, the primary ESCC tumor cells were inoculated in a Matrigel® (manufactured by BD Biosciences)-coated 24-well plate at a density of 4×10^4 cells/cm^2. 1 mL of the culture medium for primary ESCC epithelial cells (FEM) of the invention was used, which was then placed in a 37° C., 5% CO2 incubator (purchased from Thermo Fisher) for culture.
When the cells in the culture plate grew to cover about 80% of the bottom area, the medium supernatant in the 24-well plate was discarded and 400 μL 0.05% trypsin (purchased from Gibco) was added for cell digestion; the cells were incubated at 37° C. for 10 minutes until the cells were completely digested as observed under the microscope (EVOS M500, Invitrogen); then the digestion was terminated by using 800 μL of DMEM/F12 culture solution containing 5% (v/v) fetal bovine serum, 100 U/mL penicillin, and 100 μg/mL penicillin; the resultant was collected into a 15 mL centrifuge tube and centrifuged at 1500 rpm for 4 minutes, and then the supernatant was discarded. The centrifuged cell sediments were resuspended in the culture medium of the invention and were counted with a flow imaging counter (JIMBIO FIL, Jiangsu Jimbio Technology Co., Ltd.) to obtain the total number of cells. The cells were incubated into another 24-well culture plate coated with extracellular matrix gel at a density of 2×10^4 cells/cm^2 for further culture. The cells were inoculated into the 24-well culture plate coated with extracellular matrix gel at the same density using other seven different mediums for culture.
When the passaged cells grew in the culture plate to cover about 80% of the bottom area of the plate again, the cultured cells were digested, collected and counted according to the above operating method. The cells were inoculated at a density of 2×10^4 cells/cm^2 again and cultured continuously using the respective culture mediums of different compositions.
The following is the formula for calculating the cell population doubling number of primary ESCC epithelial cells under different culture conditions:
Population Doubling (PD)=3.32*log10 (total number of digested cells/the number of cells at initial inoculation), see Chapman et al., Stem Cell Research & Therapy 2014, 5: 60. […]

[3] = system: ESCC tumor cells (Sample No. 0F0065); assay: Effects of different concentrations of the additive factors in FEM on proliferation of primary ESCC cells; conditions: factor added back to FEM lacking it; first passage; FIGS. 3A-3H; preferably
Description: as §1, with “plate with 200 μl/well to” for “plate with 500 μl/well to”, “Matrigel-coated plate. […]” for “Matrigel-coated plate.”
ESCC epithelial cells originated from cancer tissue were isolated and obtained from the cancer tissue of an ESCC patient (Sample No. 0F0065) using the same method as in Example 1. Next, ESCC tumor cells originated from cancer tissue were counted with a flow imaging counter (JIMBIO FIL, Jiangsu Jimbio Technology Co., Ltd.) to obtain the total number of cells. […] The centrifuged cell sediments were resuspended in the basic medium BM and were counted with a flow imaging counter (JIMBIO FIL, Jiangsu Jimbio Technology Co., Ltd.) to obtain the total number of cells. […]

| Compound | effect on cell proliferation (ratio of number of cells to that in basic medium BM) [1] | proliferation effect of cells after removal of the component from FEM [2] | amount in the culture medium, preferable (proliferation ratio to control well) [3] [ng/mL] |
| --- | --- | --- | --- |
| CN1C(=O)C(c2c(F)cccc2F)N(C)c2nc(Nc3ccc(S(N)(=O)=O)cc3)ncc21 (stereo not shown) [Compound 1, 4-((7-(2,6-difluorophenyl)-5,8-dimethyl-6-oxo-5,6,7,8-tetrahydropteridin-2-yl)amino)benzsulfamide] | promoting effects on cell proliferation | significantly attenuated | – |
| Cc1cccc(-c2nn(C(=S)Nc3ccccc3)cc2-c2ccnc3ccccc23)n1 [Compound A83-01] | – | significantly attenuated | – |
| C[C@@H](N)[C@H]1CC[C@H](C(=O)Nc2ccncc2)CC1 [Compound Y27632, reference compound] | promoting effects on cell proliferation | significantly attenuated | – |
| Oc1ccc(-c2nc(-c3ccncc3)c(-c3ccc(F)cc3)[nH]2)cc1 [SB202190] | – | significantly attenuated | – |
| epidermal growth factor: growth factor from Sino Biological (NSDSECPLSHDGYCLHDGVCMYIEALDKYACNCVVGYIGERCQYRDLKWWELR; Epidermal growth factor; UniProt P01133 971-1023, looked up) | promoting effects on cell proliferation | – | – |
| hepatocyte growth factor: growth factor from Sino Biological | promoting effects on cell proliferation | – | 2.5 to 20 |
| insulin-like growth factor 1: growth factor from Sino Biological | promoting effects on cell proliferation | – | – |
